Measured values from US20160120886A1, “PREVENTION, TREATMENT, AND AMELIORATION OF RADIATION INDUCED ENTERITIS” (priority 2004, published 2016).

Assays:
[1] = cited from earlier work
[2] = cited from earlier work; remark: listed apart in the source
radiation enteritis [3] = assay: Clinical trial of balsalazide to treat radiation enteritis; type: in vivo, human; conditions: patients on pelvic radiotherapy
Description: Subjects included patients treated for FIGO stage IB2-IVA cervical cancer, AJCC Stage T1-3 MO prostate cancer, or biochemical failure after prostatectomy. Radiotherapy was delivered to the subjects in a 4-field technique to at least 40 Gy, and tumor dose was at least 64 Gy for prostate patients, and 75 Gy for cervical patients. Brachytherapy boost was permitted. Patients were given 2250 mg of BSZ or an Identical-appearing placebo twice daily beginning 5 days prior to radiotherapy, and continuing for 2 weeks after completion. Toxicities were graded weekly according to NCI Common Toxicity Criteria, for each of the following: proctitis, diarrhea, dysuria, weight loss, fatigue, nausea, and vomiting. A symptom index was formulated for each toxicity consisting of the toxicity's numeric grade multiplied by the number of days it was experienced, and summed for each grade. Thus, a patient with 7 days of grade 1 proctitis, 14 days of grade 2 proctitis, and 7 days of grade 3 proctitis [(1*7)+(2*14)+(3*7)] would have a proctitis index of 56. A higher Index indicates worse toxicity. Patients were randomized by sealed envelope decision, with only the protocol coordinator aware of the results of randomization. After randomization, the study drug or identical-appearing placebo was given to the study subject with instructions concerning dosage and administration schedule. As stated above, the toxicity was assessed weekly during the course of radiation treatment, then for a period of at least six months after completion of radiotherapy. National Cancer Institute (NCI) common toxicity criteria were used to grade the severity of radiation-induced acute bowel toxicity. Diarrhea was used as the primary endpoint and was assessed as follows: Grade 0—no diarrhea or increased stool frequency Grade 1—increase of 2-3 stools/day Grade 2—increase of 4-6 stools/day or nocturnal stool Grade 3—increase of 7-9 stools/day or incontinence Grade 4—increase of >10 stools/day or grossly bloody diarrhea Documented baseline hemorrhoidal bleeding was not considered grade 4. A secondary endpoint included proctitis, which was assessed using guidelines outlined by the NCI Common Toxicity Criteria, including: Grade 0—None Grade 1—Increased stool frequency, occasional blood-streaked stools or rectal discomfort, not requiring medication Grade 2—increased stool frequency, bleeding, mucous discharge or rectal discomfort requiring medication Grade 3—increased stool frequency/diarrhea requiring parenteral support, rectal bleeding requiring transfusion, or persistent mucus discharge necessitating the use of pads Grade 4—perforation, bleeding or necrosis, or other life-threatening complications requiring surgical intervention

radiation enteritis [4] = conditions: related 5-ASA drugs; cited from earlier work
[5] = 2250 mg twice daily, versus placebo

For `O=C(O)CCNC(=O)c1ccc(/N=N/c2ccc(O)c(C(=O)O)c2)cc1` [balsalazide disodium], the “abdominal pain (only statistically significant side effect), patients receiving the drug” value ([1]; versus 0% in those receiving placebo) is given as 11% and the water solubility [2] is given as “highly water-soluble”.
With `O=C(O)CCNC(=O)c1ccc(/N=N/c2ccc(O)c(C(=O)O)c2)cc1` [balsalazide] the “proctitis mean index (symptom index: toxicity grade x days, summed)” value (radiation enteritis [3]; 2250 mg twice daily from 5 days prior to radiotherapy until 2 weeks after, vs. 77 in placebo (p=0.04), higher index = worse) was 35, the nausea/vomiting seen (radiation enteritis [3]; 2250 mg twice daily, 1 on placebo) was 2 patients and the “patients experiencing grade 4 diarrhea” value (radiation enteritis [3]; 2250 mg twice daily, 2 placebo patients did) was “No patient”. The fatigue index (radiation enteritis [3]; 2250 mg twice daily, placebo averaged 49) was 20, the average weight change (radiation enteritis [3]; 2250 mg twice daily, placebo lost greater than 3 pounds) was “gained weight” and the “all toxicities except nausea/vomiting” value (radiation enteritis [3]; [5]) was “appreciably lower”. For the same molecule, the dysuria (radiation enteritis [3]; [5]) was “appreciably lower” and the “adverse events reported in trials (headache, nausea, diarrhea, flatulence, fatigue)” value ([1]; versus placebo) was “comparable to those seen in patients receiving placebo”.
In the case of `Nc1ccc(O)c(C(=O)O)c1` [mesalamine, 5-aminosalicylic acid], the “outcome in clinical trials for radiation enteritis” value (radiation enteritis [4]) is given as “failure”.
In the case of `O=C(O)c1cc(/N=N/c2ccc(O)c(C(=O)O)c2)ccc1O` [osalazine], the “outcome in clinical trials for radiation enteritis” value (radiation enteritis [4]) is given as “failure”.
